Laboratory results taken from patent publication US10287269B2, “Pyrazolyl pyrimidinone compounds as PDE2 inhibitors” (Merck Sharp & Dohme Corp., priority 2015, dated 2019).
Read-outs that look alike come from different tables or passages of the source.

Biological target: T1, human PDE2A1 (Homo sapiens, UniProt O00408)
T1 construct: GST; purchased BPS Bioscience (San Diego, Calif.) 60020; host or cells: insect cells
Test: PDE2 IMAP FP inhibition assay, human enzyme (PDE selectivity panel format)
Type: biochemical
Summary of the method: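 GST-tagged human PDE2A1 from insect cells, run at room temperature in 10 mM Tris pH 7.2, 10 mM MgCl2, 1 mM DTT with 50 nM FAM-cAMP plus 1000 nM cGMP for 60 min. IMAP fluorescence polarization read-out; apparent Ki derived using apparent KM 10,000 nM.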

[1] = Lab A, read-out: Human PDE2 Ki (nM) Lab A
[2] = Lab B, read-out: Human PDE2 Ki (nM) Lab B

T1 sequence (O00408 1-920 isoform O00408-2): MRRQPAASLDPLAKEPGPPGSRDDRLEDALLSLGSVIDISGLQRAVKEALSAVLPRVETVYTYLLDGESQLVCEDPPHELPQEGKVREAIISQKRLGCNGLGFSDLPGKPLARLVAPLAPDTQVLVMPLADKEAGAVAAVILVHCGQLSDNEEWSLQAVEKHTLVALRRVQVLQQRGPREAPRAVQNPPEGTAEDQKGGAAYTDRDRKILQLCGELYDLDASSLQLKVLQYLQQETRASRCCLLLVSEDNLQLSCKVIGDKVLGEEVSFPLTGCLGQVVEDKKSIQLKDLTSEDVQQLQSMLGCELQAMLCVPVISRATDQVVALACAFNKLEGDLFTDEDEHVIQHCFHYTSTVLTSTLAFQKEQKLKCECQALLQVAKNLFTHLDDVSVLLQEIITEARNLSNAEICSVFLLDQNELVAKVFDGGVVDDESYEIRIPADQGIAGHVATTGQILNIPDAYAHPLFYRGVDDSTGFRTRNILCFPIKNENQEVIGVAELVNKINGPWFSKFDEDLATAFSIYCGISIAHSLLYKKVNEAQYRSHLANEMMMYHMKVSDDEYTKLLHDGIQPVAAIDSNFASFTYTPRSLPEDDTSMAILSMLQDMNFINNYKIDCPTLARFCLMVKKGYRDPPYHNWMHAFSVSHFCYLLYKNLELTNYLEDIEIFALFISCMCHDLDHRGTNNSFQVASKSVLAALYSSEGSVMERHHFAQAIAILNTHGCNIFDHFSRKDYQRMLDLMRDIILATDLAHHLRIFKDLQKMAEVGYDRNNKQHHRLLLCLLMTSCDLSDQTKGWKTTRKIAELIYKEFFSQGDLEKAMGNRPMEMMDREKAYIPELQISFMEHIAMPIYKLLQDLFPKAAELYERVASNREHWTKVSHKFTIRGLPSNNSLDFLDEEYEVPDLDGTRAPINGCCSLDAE

| Ki [1] [nM] | Ki [2] [nM] | SMILES |
| --- | --- | --- |
| 41.6 | 24.5 | COc1ccc(Cc2nc(-c3cnn(C(C)c4ccc(C(F)(F)F)cc4F)c3)cc(=O)[nH]2)cc1 (single isomer, unassigned) [Example 139, (S)- or (R)-6-(1-(1-(2-fluoro-4-(trifluoromethyl)phenyl)ethyl)-1H-pyrazol-4-yl)-2-(4-methoxybenzyl)pyrimidin-4(3H)-one] |
| – | 47.1 | Cc1nc(-n2cc([C@](C)(O)c3ccc(C(F)(F)F)cc3F)cn2)cc(=O)[nH]1 (single isomer, unassigned) [Example 16] |
| – | 86.5 | Cc1nc(-c2cnn(C(C)c3ccc(S(F)(F)(F)(F)F)cc3)c2)cc(=O)[nH]1 (single isomer, unassigned) [Example 62, (R)- or (S)-2-methyl-6-(1-(1-(4-(pentafluorosulfanyl)phenyl)ethyl)-1H-pyrazol-4-yl)pyrimidin-4(3H)-one] |
| 2.4 | 0.9 | COc1ccc(Cc2nc(-c3cnn(C(C)c4ccc(C(F)(F)F)cc4)c3)cc(=O)[nH]2)cc1OC (single isomer, unassigned) [Example 61, (S)- or (R)-2-(3,4-dimethoxybenzyl)-6-(1-(1-(4-(trifluoromethyl)phenyl)ethyl)-1H-pyrazol-4-yl)pyrimidin-4(3H)-one] |
| 32.3 | 16.8 | Cc1nc(-n2cc([C@H](CO)c3ccc(C(F)(F)F)cc3F)cn2)cc(=O)[nH]1 (single isomer, unassigned) [Example 20] |
| – | 0.5 | COc1ccc(Cc2nc(-c3cnn(C(C)c4ccc(C(F)(F)F)cc4F)c3)cc(=O)[nH]2)cc1OC (single isomer, unassigned) [Example 66, (R)- or (S)-2-(3,4-dimethoxybenzyl)-6-(1-(1-(2-fluoro-4-(trifluoromethyl)phenyl)ethyl)-1H-pyrazol-4-yl)pyrimidin-4(3H)-one] |
| 61 | – | Cc1ccc(C(C)n2cc(-c3cc(=O)[nH]c(C)n3)cn2)c(Cl)c1 (single isomer, unassigned) [Example 148, (R)- or (S)-6-(1-(1-(2-chloro-4-methylphenyl)ethyl)-1H-pyrazol-4-yl)-2-methylpyrimidin-4(3H)-one] |
| – | 141 | CCC(c1ccc(C(F)(F)F)cc1)c1cnn(-c2cc(=O)[nH]c(C)n2)c1 (centres unmarked) [Example 129, 2-methyl-6-(4-(1-(4-(trifluoromethyl)phenyl)propyl)-1H-pyrazol-1-yl)pyrimidin-4(3H)-one] |
| 2.6 | – | COc1cccc(Cc2nc(-c3cnn(C(C)c4ccc(C(F)(F)F)cc4F)c3)cc(=O)[nH]2)c1 (single isomer, unassigned) [Example 140, (R)- or (S)-6-(1-(1-(2-fluoro-4-(trifluoromethyl)phenyl)ethyl)-1H-pyrazol-4-yl)-2-(3-methoxybenzyl)pyrimidin-4(3H)-one] |
| 16.4 | 6.8 | Cc1nc(-c2cnn(C(C)c3ccc(C(F)(F)F)cc3C)c2)cc(=O)[nH]1 (single isomer, unassigned) [Example 57, (S)- or (R)-2-methyl-6-(1-(1-(2-methyl-4-(trifluoromethyl)phenyl)ethyl)-1H-pyrazol-4-yl)pyrimidin-4(3H)-one] |
| – | 233 | Cc1nc(-c2cnn(C(C)c3ccc(C(F)(F)F)cc3)c2)cc(=O)[nH]1 (centres unmarked) [Example 126, 2-methyl-6-(1-(1-(4-(trifluoromethyl)phenyl)ethyl)-1H-pyrazol-4-yl)pyrimidin-4(3H)-one] |
| – | 66.6 | Cc1nc(-n2cc(C3(C)OCc4cc(C(F)(F)F)ccc43)cn2)cc(=O)[nH]1 (single isomer, unassigned) [Example 27] |
| – | 140 | Cc1nc(-c2cn(C(C)c3ccc(C(F)(F)F)cc3)nc2C)cc(=O)[nH]1 (centres unmarked) [Example 80, 2-methyl-6-(3-methyl-1-(1-(4-(trifluoromethyl)phenyl)ethyl)-1H-pyrazol-4-yl)pyrimidin-4(3H)-one] |
| 7.2 | 3.3 | COc1ccc(Cc2nc(-c3cnn(C(C)c4ccc(S(F)(F)(F)(F)F)cc4)c3)cc(=O)[nH]2)cc1OC (single isomer, unassigned) [Example 64, (R)- or (S)-2-(3,4-dimethoxybenzyl)-6-(1-(1-(4-(pentafluorosulfanyl)phenyl)ethyl)-1H-pyrazol-4-yl)pyrimidin-4(3H)-one] |
| 17.3 | – | COc1cccc(Cc2nc(-c3cnn(C(C)c4ccc(C(F)(F)F)cc4F)c3)cc(=O)[nH]2)c1 (single isomer, unassigned) [Example 141, (S)- or (R)-6-(1-(1-(2-fluoro-4-(trifluoromethyl)phenyl)ethyl)-1H-pyrazol-4-yl)-2-(3-methoxybenzyl)pyrimidin-4(3H)-one] |
| 32 | – | CCC(c1ccc(C(F)(F)F)cc1F)n1cc(-c2cc(=O)[nH]c(C)n2)cn1 (centres unmarked) [Example 33, 6-(1-(1-(2-fluoro-4-(trifluoromethyl)phenyl)propyl)-1H-pyrazol-4-yl)-2-methylpyrimidin-4(3H)-one] |
| 44.6 | – | Cc1nc(-c2cnn(C(c3ccc(C(F)(F)F)cc3F)C(C)C)c2)cc(=O)[nH]1 (centres unmarked) [Example 34, 6-(1-(1-(2-fluoro-4-(trifluoromethyl)phenyl)-2-methylpropyl)-1H-pyrazol-4-yl)-2-methylpynmidin-4(3H)-one] |

| Ki [1] [nM] | Ki [2] [nM] | SMILES |
| --- | --- | --- |
| 5.1 | – | Cc1nc(-c2cnn(C(C)c3ccc(C(F)(F)F)cc3Cl)c2)cc(=O)[nH]1 (single isomer, unassigned) [Example 83, (R)- or (S)-6-(1-(1-(2-chloro-4-(trifluoromethyl)phenyl)ethyl)-1H-pyrazol-4-yl)-2-methylpyrimidin-4(3H)-one] |
| 17.2 | – | CCc1nc(-c2cnn(C(C)c3ccc(C(F)(F)F)cc3F)c2)cc(=O)[nH]1 (centres unmarked) [Example 36, 2-ethyl-6-(1-(1-(2-fluoro-4-(trifluoromethyl)phenyl)ethyl)-1H-pyrazol-4-yl)pyrimidin-4(3H)-one] |
| – | 11.7 | Cc1nc(-n2cc([C@](C)(O)c3ccc(C(F)(F)F)cc3F)cn2)cc(=O)[nH]1 (single isomer, unassigned) [Example 15] |
| – | 1110 | Cc1nc(-n2cc(Cc3ccc(OC(F)(F)F)cc3)cn2)cc(=O)[nH]1 [Example 30, 2-Methyl-6-(4-(4-(trifluoromethoxy)benzyl)-1H-pyrazol-1-yl)pyrimidin-4(3H)-one] |
| 31.2 | – | COc1ccc(Cc2nc(-c3cnn(C(C)c4ccc(C(F)(F)F)cc4F)c3)cc(=O)[nH]2)cc1F (single isomer, unassigned) [Example 146, (R)- or (S)-6-(1-(1-(2-fluoro-4-(trifluoromethyl)phenyl)ethyl)-1H-pyrazol-4-yl)-2-(3-fluoro-4-methoxybenzyl)pyrimidin-4(3H)-one] |
| 1 | 0.4 | COc1ccc(Cc2nc(-n3cc(C(C)c4ccc(C(F)(F)F)cc4)cn3)cc(=O)[nH]2)cc1OC (centres unmarked) [Example 137, 2-(3,4-dimethoxybenzyl)-6-(4-(1-(4-(trifluoromethyl)phenyl)ethyl)-1H-pyrazol-1-yl)pyrimidin-4(3H)-one] |
| 10.4 | – | CCc1ccc(C(C)n2cc(-c3cc(=O)[nH]c(C)n3)cn2)c(Cl)c1 (single isomer, unassigned) [Example 99, (R)- or (S)-6-(1-(1-(2-chloro-4-ethylphenyl)ethyl)-1H-pyrazol-4-yl)-2-methylpyrimidin-4(3H)-one] |
| 27.9 | – | COc1cc(Cc2nc(-c3cnn(C(C)c4ccc(C(F)(F)F)cc4F)c3)cc(=O)[nH]2)ccc1F (single isomer, unassigned) [Example 143, (S)- or (R)-2-(4-fluoro-3-methoxybenzyl)-6-(1-(1-(2-fluoro-4-(trifluoromethyl)phenyl)ethyl)-1H-pyrazol-4-yl)pyrimidin-4(3H)-one] |
| 3.3 | – | COc1ccc(Cc2nc(-c3cnn(C(C)c4ccc(C(F)(F)F)cc4F)c3)cc(=O)[nH]2)cc1F (single isomer, unassigned) [Example 147, (S)- or (R)-6-(1-(1-(2-fluoro-4-(trifluoromethyl)phenyl)ethyl)-1H-pyrazol-4-yl)-2-(3-fluoro-4-methoxybenzyl)pyrimidin-4(3H)-one] |
| 48.4 | – | Cc1nc(-c2cnn(C(C)c3ccc(C4CC4)cc3F)c2)cc(=O)[nH]1 (single isomer, unassigned) [Example 91, (R)- or (S)-6-(1-(1-(4-cyclopropyl-2-fluorophenyl)ethyl)-1H-pyrazol-4-yl)-2-methylpyrimidin-4(3H)-one] |
| – | 174 | Cc1nc(-n2ccc([C@H](C)c3ccc(C(F)(F)F)cc3)n2)cc(=O)[nH]1 (single isomer, unassigned) [Example 5] |
| – | 19.4 | Cc1nc(-c2cc([C@H](C)c3ccc(C(F)(F)F)cc3)[nH]n2)cc(=O)[nH]1 (single isomer, unassigned) [Example 23] |
| – | 33.2 | Cc1nc(-n2cc(C(C)c3ccc(C(F)(F)F)cc3F)cn2)cc(=O)[nH]1 (single isomer, unassigned) [Example 53, (S)- or (R)-6-(4-(1-(2-fluoro-4-(trifluoromethyl)phenyl)ethyl)-1H-pyrazol-1-yl)-2-methylpyrimidin-4(3H)-one] |
| 19.1 | 7.6 | Cc1nc(-c2cnn(C(C)c3ccc(C(F)(F)F)cc3F)c2)cc(=O)[nH]1 (single isomer, unassigned) [Example 136, (S)- or (R)-6-(1-(1-(2-fluoro-4-(trifluoromethyl)phenyl)ethyl)-1H-pyrazol-4-yl)-2-methylpyrimidin-4(3H)-one] |
| – | 87.6 | Cc1nc(-n2cc(C(c3ccc(C(F)(F)F)cc3)C(C)C)cn2)cc(=O)[nH]1 (centres unmarked) [Example 130] |
| – | 35.3 | Cc1nc(-n2cc(C(C)c3ccc(C4CC4)cc3)cn2)cc(=O)[nH]1 (centres unmarked) [Example 39, 6-(4-(1-(4-cyclopropylphenyl)ethyl)-1H-pyrazol-1-yl)-2-methylpyrimidin-4(3H)-one] |
| – | 31.5 | Cc1nc(-n2cc([C@]3(c4ccc(C(F)(F)F)cc4)CCCO3)cn2)cc(=O)[nH]1 (single isomer, unassigned) [Example 22] |
